Test results taken from EPA's aquatic toxicity sets.

system: Tetrahymena pyriformis; experiment: 48 h IGC50 (-log10 mol/L); higher = more toxic

Structure (SMILES)	48 h IGC50 (-log10 mol/L)
CC(N)c1ccccc1 (stereo not drawn)	2.82
Nc1cc(Cl)c(Cl)cc1[N+](=O)[O-]	4.66
O=[N+]([O-])c1ccc(CBr)cc1	5.31
CCc1ccc(CO)cc1	3.07
c1ccc2c(c1)ccc1cccnc12	4.31
CCOC(=O)C(C#N)c1ccccc1 (stereo not drawn)	2.98
CCCCC(=O)OCC	2.64
CC(C)(O)C#CC(C)(C)O	1.42
CCCCCCCCCCCC(C)O (stereo not drawn)	5.17
CCCCC#CC(=O)OCC	4.11
CC1CC(=O)O1 (stereo not drawn)	2.24
CCC(O)Cc1ccccc1 (stereo not drawn)	2.84
O=C(O)c1ccccc1Cl	2.55
Cc1nccnc1C	2.13
CC(C)(C)CO	2.13
CC(Br)C#N (stereo not drawn)	3.63
N#CCc1ccc([N+](=O)[O-])cc1	3.13
CC(=O)c1ccc(C)o1	2.17
CC#CC(C)(O)CCC (stereo not drawn)	2.52
CCCC/C=C/CO	3.04
CC(C)CC#N	2.12
CC(C)C(C)O (stereo not drawn)	2
CC(O)CCC(C)O (stereo not drawn)	1.04

Structure (SMILES)	48 h IGC50 (-log10 mol/L)
COC(=O)c1ccc(C(C)(C)C)cc1	3.92
CC(Cl)C(N)=O (stereo not drawn)	1.56
O=C(CBr)c1cccs1	5.22
CCCOc1ccc(O)cc1	3.52
O=[N+]([O-])c1ccc(O)c(O)c1	4.17
O=[N+]([O-])c1cc(Br)ccc1O	4.87
CC(C)=CC=O	3.09
CCCCCCCCCCOC(=O)CC#N	4.7
COc1cccc2ccccc12	3.8
CC(C)(C)c1cc([N+](=O)[O-])c(O)c([N+](=O)[O-])c1	4.8
CCOC(=O)c1ccc(C(C)(C)C)cc1	4.42
Cc1ccc(O)c(O)c1	3.37
CC(=O)O[C@@H]1C[C@@H]2CC[C@@]1(C)C2(C)C	3.68
O=C1CCCO1	1.28
CC(C)C=CC=O	3.82
NC(=O)c1cccs1	2.03
C#CCOC(=O)CC	2.35
CCCCCCN=C=S	4.75
CCCCCCOc1ccc(O)cc1	4.64
O=Cc1ccc(-c2ccccc2)cc1	4.12
C=CCC(C(=O)OCC)C(=O)OCC	2.94
O=Cc1c(O)ccc2ccccc12	4.32
CCCCC#N	1.99

Structure (SMILES)	48 h IGC50 (-log10 mol/L)
Cc1cccc(C)c1N=C=S	4.5
C/C=C/C(=O)OC(C)(C)C	2.36
CC(=O)NC(C)(C)C	1.84
Cc1ccc2ccccc2n1	3.47
CCOC(=O)c1ccc(O)cc1	3.57
Oc1cccc(Br)c1	4.15
CC(C)(C)OC(=O)CCl	3.85
CCc1cccc(N)c1	2.97
O=C(O)CCCCCCC(=O)O	2.49
NCc1ccc(Cl)cc1	3.16
O=Cc1ccc(O)cc1Cl	3.89
CCCCCCCCCOC(=O)c1ccc(O)cc1	5.63
OCCc1cccc2ccccc12	3.27
CCCCCCCCC(=O)O	3.35
CCCCCCCCCCC#CCCO	5.38
Cc1ccc(O)c([N+](=O)[O-])n1	3.39
O=[N+]([O-])c1ccccc1F	3.23
CCCCCCO	2.62
OCCCCc1ccccc1	3.12
Cc1cc(N)ncc1[N+](=O)[O-]	3.37
CC(O)CBr (stereo not drawn)	1.81
CCOC(=O)c1ccc(C#N)cc1	3.37
